The text below walks through data of patent US8828926B2, “Uses of natriuretic peptide constructs” (priority 2010, dated 2014).

One data set deals with human lung tissues. The data set is described as follows: Human precision-cut lung slice relaxation, precontracted with carbachol. The format is cell-based.
In another data set the target is human NEP (hNEP) (Homo sapiens, UniProt P08473). Nature of the data set: Metabolism by human neutral endopeptidase (hNEP) solution at 37° C. The format is in vitro ADME. The settings on record: substrate concentration 50 μM; for remaining at 2 h, 50 μM: read-out: percent remaining after 2-hour exposure to hNEP. As to the method: . Pharmacol. 191:341-366 (2009)). A comparison was made between the sensitivity of the construct of formula IV and ANP to metabolism by human NEP (hNEP) (substrate concentration 50 μM). After 2-hour exposure to hNEP solution at 37° C., there was minimal degradation of the construct of formula IV (92% remaining; n=5). In contrast, under these conditions ANP was about 90% degraded after 60 minutes and 100% after 2-hours (n=4). […] Results are shown in FIG. 1; results in FIG. 1 are expressed as the percent of the starting material, and are either the mean of 1-5 experiments or, where error bars are shown, are the mean±standard deviation.

The conditions of data set [1]: Potter et al. 2009; cited from earlier work.
Data set [2] concerns bronchoconstrictor response evoked by methacholine. Nature of the data set: Methacholine-evoked bronchoconstriction in anesthetized guinea pigs, intratracheal delivery. As to conditions: 1000 μg/kg IT, 15 minutes, methacholine 10 μg/mL. The format is in vivo, guinea pigs (Dunkin Hartley). The method, then: Studies were conducted with intratracheal (IT) delivery of the construct of formula IV in anesthetized guinea pigs (Dunkin Hartley) challenged with the muscarinic receptor agonist, methacholine. […] The inhibition was maintained for all doses after the 60 minute pretreatment time. The duration of action of 10 μg/kg and 100 μg/kg doses of the construct of formula IV was explored (FIGS. 4C and 4D). For both doses the inhibition extended to 120 minutes post-administration, although it was reduced, with inhibitory effect absent after 240 minutes pretreatment.

Positions of bridges follow the written chain, without caps; N, C: chain ends. Non-standard residues stand in square brackets, D forms with d. Residues, ends and D or L forms follow the SMILES beside them. *: point of attachment. X1 = N=C(N)NCCC[C@H]1C(=O)N[C@@H](C(N)=O)CN1*; dNle = CCCC[C@@H](N)C(=O)O; Heptanoyl = CCCCCCC(=O)*

human NEP (hNEP), sequence (P08473 whole entry): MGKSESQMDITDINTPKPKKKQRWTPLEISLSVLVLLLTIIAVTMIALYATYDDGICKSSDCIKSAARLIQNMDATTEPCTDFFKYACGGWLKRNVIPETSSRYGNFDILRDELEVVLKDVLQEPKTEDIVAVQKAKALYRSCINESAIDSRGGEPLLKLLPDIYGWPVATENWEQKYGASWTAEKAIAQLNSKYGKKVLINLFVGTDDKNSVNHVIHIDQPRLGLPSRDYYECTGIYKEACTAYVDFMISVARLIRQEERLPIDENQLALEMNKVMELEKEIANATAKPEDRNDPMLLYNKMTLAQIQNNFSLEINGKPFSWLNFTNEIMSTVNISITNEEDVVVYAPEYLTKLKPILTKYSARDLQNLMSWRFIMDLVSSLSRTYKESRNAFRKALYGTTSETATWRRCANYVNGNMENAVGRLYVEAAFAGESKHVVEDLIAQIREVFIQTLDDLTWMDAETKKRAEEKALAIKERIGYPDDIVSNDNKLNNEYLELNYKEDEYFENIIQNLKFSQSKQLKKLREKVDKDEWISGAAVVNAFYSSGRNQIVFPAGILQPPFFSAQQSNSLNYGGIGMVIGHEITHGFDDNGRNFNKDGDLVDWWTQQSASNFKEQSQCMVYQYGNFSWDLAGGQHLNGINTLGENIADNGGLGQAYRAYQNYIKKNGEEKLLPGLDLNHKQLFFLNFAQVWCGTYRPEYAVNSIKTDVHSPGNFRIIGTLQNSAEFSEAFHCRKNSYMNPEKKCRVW

With `CC(C)NCC(O)c1ccc(O)c(O)c1` (stereo not shown) [Isoprenaline], the “relaxation of carbachol-induced contraction” value in the data set with human lung tissues (100 μM, human lung slices) is listed as “about 75%”. Besides, the Isoproterenol-mediated broncho-dilatation in the data set with human lung tissues (in the absence of the construct of formula IV, n=4) is on record as 88.2±3.4%. As a reminder, the fraction remaining is the share of the starting amount still present when the sample was taken. In the case of `CCCCCCC(=O)N[C@H]1CSSC[C@@H](C(=O)N[C@@H](Cc2ccc(O)cc2)C(=O)N2C[C@H](C(N)=O)NC(=O)[C@@H]2CCCNC(=N)N)NC(=O)[C@H](CO)NC(=O)[C@H]([C@@H](C)CC)NC(=O)[C@H](CCCNC(=N)N)NC(=O)[C@H](CC(=O)O)NC(=O)[C@@H](CCCC)NC(=O)[C@H](CCCNC(=N)N)NC(=O)CNC(=O)[C@@H](C)NC(=O)[C@H](Cc2ccccc2)NC(=O)[C@H](Cc2c[nH]cn2)NC1=O` [construct of formula IV] (Heptanoyl-CHF[dA]GR[dNle]DRISCY-X1; disulfide 1-12), at human NEP (hNEP), the fraction remaining at 2 h, 50 μM came out at 92%. Turning to `CC[C@H](C)[C@@H]1NC(=O)[C@H](CCCNC(=N)N)NC(=O)[C@H](CC(=O)O)NC(=O)[C@H](CC(C)C)NC(=O)[C@H](CCCCN)NC(=O)[C@H](CC(C)C)NC(=O)CNC(=O)[C@H](Cc2ccccc2)NC(=O)[C@@H](NC(=O)CNC(=O)[C@H](CCCCN)NC(=O)[C@H](CO)NC(=O)[C@H](CC(C)C)NC(=O)CN)CSSC[C@@H](C(=O)O)NC(=O)CNC(=O)[C@H](CC(C)C)NC(=O)CNC(=O)[C@H](CO)NC(=O)[C@H](CCSC)NC(=O)[C@H](CO)NC(=O)CNC1=O` [hCNP], at human NEP (hNEP) (60 min, read-out: percent remaining after 60-min incubation with hNEP), the share remaining at 1 h, 50 μM amounted to 39%. Besides, the amount remaining at 2 h, 50 μM at human NEP (hNEP) is 1%. The “reported human plasma half-life” value in data set [1] is recorded as “about 2 minutes”. Turning to `CC(C)(C)NCC(O)c1ccc(O)c(CO)c1` (stereo not shown) [salbutamol], the “maximum inhibition of bronchoconstrictor response” value in data set [2] stood at 87±2%.
